Among the data in US20250171457A1, “NITROGEN-CONTAINING HETEROCYCLIC COMPOUND HAVING NRF2 ACTIVATION EFFECT” (CHUGAI SEIYAKU KABUSHIKI KAISHA, priority 2022, published 2025) are EC50 values, retold here.

This experiment deals with Nrf2 transcriptional activity (pARE-Luc reporter) in HepG2 cells. The experiment can be described thus: In vitro Nrf2 transcriptional activity measurement by ARE-dependent reporter assay in HepG2 cell. The format is cell-based, human. The note with it: Homo sapiens; HepG2 cells transfected with pARE-Luc, 4 hours at 37° C.; luciferase activity of Example 1-54 or Example 17-23 at 3.75 μM defined as 100%. The essentials: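 Luminescence readout (Bright-Glo) after 4 h, 37° C compound exposure of HepG2 cells carrying the ARE-luciferase vector pGL4.37. Each well converted to % response versus reference compound at 3.75 μM, and EC50 derived from dose-response curves.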
Background: In a reporter assay the amount or activity of a reporter protein is the signal.

In general, EC50 refers to the concentration at which the effect is half-maximal. Low readings indicate higher potency in that assay, high ones lower potency in that assay. Regarding `C[C@@H]1CN(c2cc(Cl)c(C(=O)N3COc4c(cccc4-c4cc(N5C6CCC5COC6)c(C(=O)O)cc4F)C3)c(Cl)c2)CCN1C` [Compound 10-3, 4-[3-[2,6-Dichloro-4-[(3R)-3,4-dimethylpiperazin-1-yl]benzoyl]-2,4-dihydro-1,3-benzoxazin-8-yl]-5-fluoro-2-(3-oxa-8-azabicyclo[3.2.1]octan-8-yl)benzoic acid], the EC50 came out at 1.5 nM. With `C[C@@H]1CN(c2cc(Cl)c(C(=O)N3COc4c(cccc4-c4cc(N5C6CCC5COC6)c(C(=O)O)cc4F)C3)c(Cl)c2)C[C@H](C)N1C` [Compound 10-4], the midpoint of the response, the EC50, lay at 4.8 nM.

As to `C[C@H]1CN(c2cc(Cl)c(C(=O)N3COc4c(cccc4-c4cc(N5C6CCC5COC6)c(C(=O)O)cc4F)C3)c(Cl)c2)CCN1C` [Compound 10-5, 4-[3-[2,6-Dichloro-4-[(3S)-3,4-dimethylpiperazin-1-yl]benzoyl]-2,4-dihydro-1,3-benzoxazin-8-yl]-5-fluoro-2-(3-oxa-8-azabicyclo[3.2.1]octan-8-yl)benzoic acid], the midpoint of the response, the EC50, lay at 4.3 nM. For `CN1CCN(c2cc(Cl)c(C(=O)N3COc4c(cccc4-c4cc(N5C6CCC5COC6)c(C(=O)O)cc4F)C3)c(Cl)c2)CC1(C)C` [Compound 10-6, 4-[3-[2,6-Dichloro-4-(3,3,4-trimethylpiperazin-1-yl)benzoyl]-2,4-dihydro-1,3-benzoxazin-8-yl]-5-fluoro-2-(3-oxa-8-azabicyclo[3.2.1]octan-8-yl)benzoic acid], a half-maximal effect (EC50) was put at 9.1 nM. `O=C(O)c1cc(F)c(-c2cccc3c2OCN(C(=O)c2c(Cl)cc(N4C[C@@H]5C[C@H]4CN5C4COC4)cc2Cl)C3)cc1N1C2CCC1COC2` [Compound 10-7, 4-[3-[2,6-Dichloro-4-[(1S,4S)-5-(oxetan-3-yl)-2,5-diazabicyclo[2.2.1]heptan-2-yl]benzoyl]-2,4-dihydro-1,3-benzoxazin-8-yl]-5-fluoro-2-(3-oxa-8-azabicyclo[3.2.1]octan-8-yl)benzoic acid] returned an EC50 of 23 nM. `C[C@@H]1CN(c2cc(Cl)c(C(=O)N3COc4c(cccc4-c4cc(N5C6CCC5COC6)c(C(=O)O)cc4F)C3)c(Cl)c2)CCN1C1COC1` [Compound 10-8, 4-[3-[2,6-Dichloro-4-[(3R)-3-methyl-4-(oxetan-3-yl)piperazin-1-yl]benzoyl]-2,4-dihydro-1,3-benzoxazin-8-yl]-5-fluoro-2-(3-oxa-8-azabicyclo[3.2.1]octan-8-yl)benzoic acid] showed a 50% effective concentration (EC50) of 1.5 nM. `O=C(O)c1cc(F)c(-c2cccc3c2OCN(C(=O)c2c(Cl)cc(N4CCCN(C5COC5)CC4)cc2Cl)C3)cc1N1CCOCC1` [Compound 10-9, 4-[3-[2,6-Dichloro-4-[4-(oxetan-3-yl)-1,4-diazepan-1-yl]benzoyl]-2,4-dihydro-1,3-benzoxazin-8-yl]-5-fluoro-2-morpholin-4-ylbenzoic acid] showed a concentration for a half-maximal effect (EC50) of 1.2 nM.

In the case of `CN1C[C@@H]2C[C@H]1CN2c1cc(Cl)c(C(=O)N2COc3c(cccc3-c3cc(N4C5CCC4COC5)c(C(=O)O)cc3F)C2)c(Cl)c1` [Compound 10-10, 4-[3-[2,6-Dichloro-4-[(1S,4S)-5-methyl-2,5-diazabicyclo[2.2.1]heptan-2-yl]benzoyl]-2,4-dihydro-1,3-benzoxazin-8-yl]-5-fluoro-2-(3-oxa-8-azabicyclo[3.2.1]octan-8-yl)benzoic acid], the concentration giving a half-maximal response (EC50) amounted to 25 nM.

In turn, `O=C(O)c1cc(F)c(-c2cccc3c2OCN(C(=O)c2c(Cl)cc(N4CC5(C4)CN(C4COC4)C5)cc2Cl)C3)cc1N1CCOCC1` [Compound 10-11, 4-[3-[2,6-Dichloro-4-[2-(oxetan-3-yl)-2,6-diazaspiro[3.3]heptan-6-yl]benzoyl]-2,4-dihydro-1,3-benzoxazin-8-yl]-5-fluoro-2-morpholin-4-ylbenzoic acid] returned a half-maximal effective concentration (EC50) of 2.4 nM.
